In PubChem BioAssay (NCI):
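Interpolation was linear, between the two tested concentrations surrounding the appropriate level; five concentrations were tested over 48 hours in 96-well plates. At the GI50, growth is halved. TGI denotes the concentration required for complete inhibition of growth.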

Columns and labels:
Test in all cases: NCI tumour cell line growth inhibition, 48 h
[1] = system: HOP-92 NSCLC
[2] = system: MDA-MB-231 breast
[3] = system: HCT-15 colon
[4] = system: OVCAR-4 ovarian
[5] = system: 786-0 renal
[6] = system: SK-MEL-2 melanoma
[7] = system: NCI-H460 lung
[8] = system: NCI-H522 lung
[9] = system: KM12 colon
[10] = system: SN12C renal

Structure (SMILES)	GI50 [1] [µM]	TGI [1] [µM]	GI50 [2] [µM]	TGI [2] [µM]	GI50 [3] [µM]	TGI [3] [µM]	GI50 [4] [µM]	TGI [4] [µM]	GI50 [5] [µM]	TGI [5] [µM]	GI50 [6] [µM]	TGI [6] [µM]	GI50 [7] [µM]	TGI [7] [µM]	GI50 [8] [µM]	TGI [8] [µM]	GI50 [9] [µM]	TGI [9] [µM]	GI50 [10] [µM]	TGI [10] [µM]
N=c1ccc2nc3c(cc(N)c4ccccc43)oc-2c1	1.18	3.6	0.179	1.21	0.214	1.13	0.0919	0.235	1.07	2.3	0.407	1.61	0.223	0.565	0.19	0.501	0.236	0.845	0.253	0.801
Cc1cc(=O)oc2cc(OC(=O)N(CCCl)CCCl)ccc12		95.9		> 100		> 100		> 100		> 100		> 100		> 100		> 100		> 100		> 100
Nc1nc(N)nc(CC(=O)O)n1		> 100		> 100		> 100		> 100		> 100		> 100		> 100		> 100		> 100		> 100
COC(=O)[C@]1(C)CCC[C@@]2(C)[C@@H]3C[C@@H]4[C@H]5C[C@@]3(CC[C@@H]21)C[C@@]45C		29.4		29.9		29.7		26.7		29.6		30.9				32.9				33.5
COC(=O)c1ccc(CN2C(=O)C(Cl)=C(Nc3ccc(OC)c(Cl)c3)C2=O)cc1	> 50	> 50	7.14	26.3	5.2	42.4			36.2	> 50	20.5	> 50	14.8	> 50	3.84	21.5	5.42	> 50	9.04	33.7
CCn1c(=O)c2c3ccc(OC(C)=O)cc3[nH]c2c2ccc(OC(C)=O)cc21		> 100		> 100		> 100		> 100		> 100				> 100		> 100		> 100		> 100
C/C=C(/C)c1cnc(CC(C)C)c(=O)[nH]1		> 100		> 100		> 100		> 100		> 100		> 100		> 100				> 100		> 100
COc1cc2c3c(ncc2c(OC)c1OC)-c1cc2c(cc1C3)OCO2	61.1	> 100	11.5	29.5	32.6	> 100	54	> 100	33.7	> 100	11.7	45.3	> 100	> 100			> 100	> 100		
C[C@]12CC[C@H]3[C@@H](CC[C@]4(O)C[C@@H](O)CC[C@]34CO)[C@@]1(O)CC[C@@H]2C1=CC(=O)OC1		18.9		> 51.3		4.72				11.7		8.23		1.81		4.94		17		11
COC(=O)C1Cc2c([nH]c3ccccc23)C(c2ccccc2O)N1Cc1ccccc1 (stereo unspecified)		43.5				> 46.4		33.6		31.2		> 31.6		> 46.4		> 31.6		> 31.6		> 46.4
CCCCN(CCCC)CCc1c(C)cc(C)c(CCN(CCCC)CCCC)c1O			2.43	8.56	3.06	13	3.13	> 100	2.96	9.93	2.24	5.78	2.91	9.59	2.59	7.54	3.2	21.2	2.85	9.43
NC(=O)c1csc(C2CCC(CO)O2)n1 (stereo unspecified)		> 100				> 100		> 100		> 100		> 100		> 100		> 100		> 100		> 100
Clc1ccc2c(c1)[nH]c1c2nc2sccn21		> 100				> 100		> 100		> 100		> 100		> 100		> 100		> 100		> 100
O=C(CSc1nc(-c2ccccc2)c(-c2ccccc2)[nH]1)NNC(=S)Nc1ccccc1		> 100				> 100		> 100		> 100		> 100		> 100		> 100		> 100		> 100
COc1cc(/C=C2\CC3C4CC=C5C[C@@H](O)CC[C@]5(C)C4CC[C@]3(C)C2=O)ccc1OCCCn1ccnc1 (stereo partly specified)	14.2	32.6	27.1	65.6	10.2	31.3	41.5	> 100	17.3	31.3			18.6	44	17.1	37.3	25.2	54.8	17	33.7
COc1ccc(N2C(=O)C3c4[nH]c5ccccc5c4C4CCCCCCC4C3C2=O)cc1 (stereo unspecified)		33.4				27		33.2		8.29		> 69.8		27.5		36.5		> 100		14.9
O=C(O)Cc1ccccc1CCc1ccccc1Cl		> 100				> 100		> 100		> 100		91.7		> 100		> 100		> 100		> 100
COC(=O)[C@@]1(C)CCC[C@]2(C(=O)O)C3Cc4occc4[C@H](C)[C@@H]3CCC21 (stereo partly specified)		81		> 100						> 100		> 100		> 100				> 100		> 100
Clc1ccc(-c2c(C3=NCCN3)nnn2-c2ccccc2)cc1		> 100				> 100		> 100		> 100		> 100		> 100		> 100		> 100		> 100
COc1cc(/C=C/c2ccc(OC)c(OC)c2OC)cc(OC)c1OC		31.8				> 57.2		70.9		51.6		36.1		56.2		> 51.6		57.3		> 69.5
CCCCCCCCCCCCCCCCCCNC(=O)OCC(CNS(=O)(=O)CCC[n+]1cccc2ccccc21)COC (stereo unspecified)		4.01		4.05		59.2		7.01		> 43.5				> 100						20.8
